Experimental data taken from ChEMBL document CHEMBL5608172, “Structural modification strategies of triazoles in anticancer drug development” (Eur J Med Chem, 2024).
Values belong to the compound of their own block, whether it stands above or below them.

Experiments:
Detroit 562 = assay: Antiproliferative activity against human Detroit 562 cells; assay type: functional, cell-based
HCT-116 [1] = assay: Cytotoxicity against human HCT-116 cells assessed as reduction in cell growth incubated for 24 hrs by MTT assay; assay type: functional, cell-based; settings: HCT-116, 24 h
HeLa [2] = assay: Cytotoxicity against human HeLa cells assessed as reduction in cell viability after 72 hrs by MTT assay; assay type: functional, cell-based
U-937 = assay: Antiproliferative activity against human U-937 cells; assay type: functional, cell-based
HL-60 = assay: Antiproliferative activity against human HL-60 cells; assay type: functional, cell-based
PC-3 [3] = assay: Cytotoxicity against human PC-3 cells assessed as reduction in cell growth incubated for 3 days by MTT assay; assay type: functional, cell-based; settings: PC-3, 72 h
HCT-116 [4] = assay: Cytotoxicity against human HCT-116 cells assessed as reduction in cell viability measured after 48 hrs by MTT assay; assay type: functional, cell-based; settings: HCT-116, 48 h
A549 = assay: Anticancer activity against human A549 cells assessed as reduction in cell viability by MTT assay; assay type: functional, cell-based
HeLa [5] = assay: Anticancer activity against human HeLa cells assessed as reduction in cell viability by MTT assay; assay type: functional, cell-based
SNB-19 = assay: Cytotoxicity against human SNB-19 cells assessed as reduction in cell growth incubated for 24 hrs by MTT assay; assay type: functional, cell-based; settings: SNB-19, 24 h
MCF7 [6] = assay: Cytotoxicity against human MCF7 cells assessed as reduction in cell growth incubated for 24 hrs by MTT assay; assay type: functional, cell-based; settings: MCF7, 24 h
T47D = assay: Cytotoxicity against human T47D cells assessed as reduction in cell growth incubated for 24 hrs by MTT assay; assay type: functional, cell-based
AGS = assay: Anticancer activity against human AGS cells; assay type: functional, cell-based
MCF7 [7] = assay: Cytotoxicity against human MCF7 cells assessed as cell growth inhibition incubated for 72 hrs by SRB assay; assay type: functional, cell-based; settings: MCF7, 72 h
CCRF-CEM = assay: Antiproliferative activity against human CCRF-CEM cells; assay type: functional, cell-based
SW-620 = assay: Antiproliferative activity against human SW620 cells assessed as inhibition of cell growth measured after 72 hrs by MTT assay; assay type: functional, cell-based; settings: SW-620, 72 h
[8] = Cytotoxicity against hTERT Lung Fibroblast cells assessed as reduction in cell growth incubated for 72 hrs by MTT assay; assay type: toxicity, cell-based; settings: human
MCF7 [9] = assay: Cytotoxicity against human MCF7 cells assessed as reduction in cell growth incubated for 72 hrs by MTT assay; assay type: functional, cell-based; settings: MCF7, 72 h
MCF7 [10] = assay: Cytotoxicity against human MCF7 cells assessed as reduction in cell viability incubated for 48 hrs by MTT assay; assay type: functional, cell-based; settings: MCF7, 48 h
HCT-116 [11] = assay: Cytotoxicity against human HCT-116 cells assessed as reduction in cell viability incubated for 24 hrs by MTT assay; assay type: functional, cell-based; settings: HCT-116, 24 h
MDA-MB-231 = assay: Antiproliferative activity against human MDA-MB-231 cells assessed as reduction in cell viability; assay type: functional, cell-based
MCF7 [12] = assay: Antiproliferative activity against human MCF7 cells assessed as reduction in cell viability; assay type: functional, cell-based
HCT-116 [13] = assay: Antiproliferative activity against human HCT-116 cells assessed as inhibition of cell growth measured after 72 hrs by MTT assay; assay type: functional, cell-based; settings: HCT-116, 72 h
HepG2 = assay: Anticancer activity against human HepG2 cells; assay type: functional, cell-based
PC-3 [14] = assay: Antiproliferative activity against human PC-3 cells assessed as reduction in cell viability incubated for 72 hrs by MTT assay; assay type: functional, cell-based; settings: PC-3, 72 h
K562 = assay: Antiproliferative activity against human K562 cells assessed as reduction in cell viability incubated for 72 hrs by MTT assay; assay type: functional, cell-based; settings: K562, 72 h
MCF7 [15] = assay: Antiproliferative activity against human MCF7 cells assessed as reduction in cell growth incubated for 24 hrs by MTT assay; assay type: functional, cell-based; settings: MCF7, 24 h
HeLa [16] = assay: Cytotoxicity against human HeLa cells by MTT assay; assay type: functional, cell-based
Huh-7 = assay: Cytotoxicity against human Huh-7 cells assessed as cell growth inhibition incubated for 72 hrs by SRB assay; assay type: functional, cell-based; settings: Huh-7, 72 h

Compound: COc1cc(C(=O)/C=C/c2ccccc2)cc(OC)c1OC
IC50 (Detroit 562): 3070 nM

Compound: C=C(C)[C@@H]1CC[C@]2(COC(C)=O)CC[C@]3(C)[C@H](CC[C@@H]4[C@@]5(C)Cc6nn(C(C)=O)nc6C(C)(C)[C@@H]5CC[C@]43C)[C@@H]12
IC50 (HCT-116 [1]): 22500 nM

Compound: C=C(C)[C@@H]1CC[C@]2(CO)CC[C@]3(C)[C@H](CC[C@@H]4[C@@]5(C)Cc6nn(C(C)=O)nc6C(C)(C)[C@@H]5CC[C@]43C)[C@@H]12
IC50 (HCT-116 [1]): 5670 nM

Compound: CC(=O)O[C@@H]1[C@H](OC(C)=O)[C@H](OC(C)=O)CO[C@H]1n1cc(COC(=O)[C@]2(C)CCC[C@@]3(C)[C@@H]4CC[C@@]5(C)C[C@]4(CC[C@@H]32)CC5=O)nn1
IC50 (HeLa [2]): 1700 nM

IC50 (U-937): 820 nM
IC50 (HL-60): 2070 nM
Compound: CNc1nc2ccccc2n2c(CCc3ccccc3)cnc12

Compound: Cc1nn(-c2ccc(S(N)(=O)=O)cc2)c(N)c1-c1nnc(SC/C(=N\O)c2ccccc2)n1-c1ccccc1
IC50 (PC-3 [3]): 330 nM

Compound: CC(=O)O[C@@H]1O[C@H](Cn2cc(COc3cccc4cccnc34)nn2)[C@H](OC(C)=O)[C@H](OC(C)=O)[C@H]1OC(C)=O
IC50 (HCT-116 [4]): 10800 nM

IC50 (A549): 40.4 nM
IC50 (HeLa [5]): 29.1 nM
Compound: O=Cc1cc(Cc2ccc3oc(C(=O)c4ccc(Cl)cc4)cc3c2)ccc1OCc1cn(-c2ccccc2C(F)(F)F)nn1

Compound: C=C(C)[C@@H]1CC[C@]2(COC(=O)c3cn(Cc4ccc(F)cc4)nn3)CC[C@]3(C)[C@H](CC[C@@H]4[C@@]5(C)CC[C@H](OC(=O)c6cnnn6Cc6ccc(F)cc6)C(C)(C)[C@@H]5CC[C@]43C)[C@@H]12
IC50 (SNB-19): 80 nM
IC50 (MCF7 [6]): 90 nM
IC50 (T47D): 50 nM

IC50 (AGS): 2630 nM
Compound: O=c1cc(-c2ccccc2)c2ccc(OCc3nncn3-c3ccc(Cl)cc3)cc2o1

Compound: O=C(O)c1ccc(C(=O)NCn2cc(CSc3nc(-c4ccccc4)c(-c4ccccc4)n3-c3ccccc3)nn2)cc1
IC50 (MCF7 [7]): 380 nM

IC50 (CCRF-CEM): 3310 nM
Compound: COc1cc(/C=C/C(=O)/C(Cc2cnnn2Cc2ccc(F)cc2)=C(O)/C=C/c2ccc(O)c(OC)c2)ccc1O

IC50 (SW-620): 250 nM
Compound: c1ccc(-n2cc(-c3nc4ccc(C5=NCCN5)cc4s3)nn2)cc1

Compound: CC(=O)O[C@H]1CC[C@]2(C)[C@H]3CC=C4[C@@H]5[C@@H](C)[C@H](C)CC[C@]5(C(=O)OCc5cn(Cc6nonc6C)nn5)CC[C@@]4(C)[C@]3(C)CC[C@H]2C1(C)C
IC50 at 72 h [8]: 10400 nM
IC50 (MCF7 [9]): 1550 nM

Compound: Cc1nccc2c1[nH]c1cc(OCc3cn(-c4cc(=O)oc5ccccc45)nn3)ccc12
IC50 (MCF7 [10]): 6900 nM

Compound: O=c1oc2ccccc2c2c1cnn2Cc1cn(-c2ccc(Cl)cc2)nn1
IC50 (HCT-116 [11]): 20200 nM

IC50 (MDA-MB-231): 1790 nM
IC50 (MCF7 [12]): 1340 nM
Compound: CC(C)[C@@H]1CC[C@@H](C)C[C@@H]1On1cc(CN2C(=O)C(=O)c3ccccc32)nn1

IC50 (HCT-116 [13]): 500 nM
Compound: CCc1nnc2c(-c3ccccc3)cc3c(Br)c(OC)c(OC)cc3n12

IC50 (HepG2): 1780 nM
Compound: Nn1c(Sc2c(O)c3ccccc3oc2=O)nnc1-c1ccc(Cl)cc1

IC50 (PC-3 [14]): 1400 nM
IC50 (K562): 900 nM
Compound: CC(C)(C)c1ccc(-c2cn(Cc3cc4c(o3)-c3ccccc3C(=O)C4=O)nn2)cc1

Compound: CC(=O)O[C@@H]1O[C@H](Cn2cc(COc3cccc4cccnc34)nn2)[C@@H](OC(C)=O)[C@H](OC(C)=O)[C@H]1OC(C)=O
IC50 (HCT-116 [4]): 22300 nM

IC50 (MCF7 [15]): 1260 nM
Compound: COC(=O)c1ccccc1-n1ncc(CSc2nnc(-c3ccccc3)o2)n1

Compound: Cc1ccc(Cn2cc(Cn3c(Cl)cc(=O)n(C)c3=O)nn2)cc1
IC50 (HeLa [16]): 4500 nM
IC50 (Huh-7): 7700 nM
